The source of these data is ChEMBL document CHEMBL5576085, “Heterocyclic compounds as xanthine oxidase inhibitors for the management of hyperuricemia: synthetic strategies, structure-activity relationship and molecular docking studies (2018-2024)” (RSC Med Chem, 2024).

Test [1] addresses T1, Xanthine dehydrogenase/oxidase (Homo sapiens, UniProt P47989). The test can be described thus: Inhibition of Xanthine oxidase (unknown origin).
Test [2] concerns the target T1, Xanthine dehydrogenase/oxidase. The experiment in a line: Inhibition of Xanthine oxidase (unknown origin) using xanthine as substrate preincubated for 30 mins followed by substrate addition by spectrophotometric analysis.
The target is the same in test [3]. The test can be described thus: Inhibition of human Xanthine oxidase.
For test [4], the target named is T2, Xanthine dehydrogenase/oxidase (Bos taurus, UniProt P80457). The experiment in a line: Inhibition of bovine xanthine oxidase using xanthine as substrate by measuring uric acid formation measured 30 secs interval for 2 mins by spectrophotometric analysis.
T2 sequence (P80457 whole entry): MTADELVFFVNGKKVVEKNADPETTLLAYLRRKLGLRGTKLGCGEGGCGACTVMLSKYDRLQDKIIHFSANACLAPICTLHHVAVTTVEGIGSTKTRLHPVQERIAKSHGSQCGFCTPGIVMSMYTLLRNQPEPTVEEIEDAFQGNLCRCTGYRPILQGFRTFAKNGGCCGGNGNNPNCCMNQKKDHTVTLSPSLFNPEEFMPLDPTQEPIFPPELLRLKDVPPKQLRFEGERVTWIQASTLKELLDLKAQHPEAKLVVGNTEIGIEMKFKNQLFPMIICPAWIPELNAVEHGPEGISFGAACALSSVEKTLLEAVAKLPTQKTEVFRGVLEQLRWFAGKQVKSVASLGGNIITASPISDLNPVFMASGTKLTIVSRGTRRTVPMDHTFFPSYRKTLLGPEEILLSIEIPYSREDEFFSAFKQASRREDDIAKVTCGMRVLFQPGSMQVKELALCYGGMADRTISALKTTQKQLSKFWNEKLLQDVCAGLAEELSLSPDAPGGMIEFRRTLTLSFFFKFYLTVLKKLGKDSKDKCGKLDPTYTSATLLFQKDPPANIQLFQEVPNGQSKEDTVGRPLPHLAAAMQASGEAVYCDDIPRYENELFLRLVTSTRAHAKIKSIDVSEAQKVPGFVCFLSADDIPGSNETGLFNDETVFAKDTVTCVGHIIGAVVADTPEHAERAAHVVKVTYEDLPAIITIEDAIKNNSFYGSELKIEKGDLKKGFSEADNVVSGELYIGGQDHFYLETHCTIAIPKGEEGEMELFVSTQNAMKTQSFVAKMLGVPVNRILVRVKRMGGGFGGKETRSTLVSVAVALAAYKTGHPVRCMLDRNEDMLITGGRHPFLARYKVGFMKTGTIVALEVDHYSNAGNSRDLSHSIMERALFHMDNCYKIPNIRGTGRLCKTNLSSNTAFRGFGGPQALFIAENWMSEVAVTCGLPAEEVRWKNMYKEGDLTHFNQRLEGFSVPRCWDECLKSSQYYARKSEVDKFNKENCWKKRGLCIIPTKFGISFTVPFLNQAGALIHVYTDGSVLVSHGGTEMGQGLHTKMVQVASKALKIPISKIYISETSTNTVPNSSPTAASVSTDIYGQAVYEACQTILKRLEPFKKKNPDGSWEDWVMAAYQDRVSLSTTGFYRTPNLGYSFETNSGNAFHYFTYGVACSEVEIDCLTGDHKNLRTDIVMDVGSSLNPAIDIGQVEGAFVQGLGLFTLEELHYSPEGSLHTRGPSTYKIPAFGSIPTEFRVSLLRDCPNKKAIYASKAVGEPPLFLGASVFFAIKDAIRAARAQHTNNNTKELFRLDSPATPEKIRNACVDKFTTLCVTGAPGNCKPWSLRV
For test [5], the target named is T2, Xanthine dehydrogenase/oxidase. The test can be described thus: Inhibition of bovine serum Xanthine oxidase. The format is cell-free.
For test [6] the target is unchanged. The test can be described thus: Inhibition of bovine milk xanthine oxidase using xanthine as substrate preincubated for 30 mins followed by substrate addition by spectrophotometric analysis.

T1 sequence (P47989 whole entry): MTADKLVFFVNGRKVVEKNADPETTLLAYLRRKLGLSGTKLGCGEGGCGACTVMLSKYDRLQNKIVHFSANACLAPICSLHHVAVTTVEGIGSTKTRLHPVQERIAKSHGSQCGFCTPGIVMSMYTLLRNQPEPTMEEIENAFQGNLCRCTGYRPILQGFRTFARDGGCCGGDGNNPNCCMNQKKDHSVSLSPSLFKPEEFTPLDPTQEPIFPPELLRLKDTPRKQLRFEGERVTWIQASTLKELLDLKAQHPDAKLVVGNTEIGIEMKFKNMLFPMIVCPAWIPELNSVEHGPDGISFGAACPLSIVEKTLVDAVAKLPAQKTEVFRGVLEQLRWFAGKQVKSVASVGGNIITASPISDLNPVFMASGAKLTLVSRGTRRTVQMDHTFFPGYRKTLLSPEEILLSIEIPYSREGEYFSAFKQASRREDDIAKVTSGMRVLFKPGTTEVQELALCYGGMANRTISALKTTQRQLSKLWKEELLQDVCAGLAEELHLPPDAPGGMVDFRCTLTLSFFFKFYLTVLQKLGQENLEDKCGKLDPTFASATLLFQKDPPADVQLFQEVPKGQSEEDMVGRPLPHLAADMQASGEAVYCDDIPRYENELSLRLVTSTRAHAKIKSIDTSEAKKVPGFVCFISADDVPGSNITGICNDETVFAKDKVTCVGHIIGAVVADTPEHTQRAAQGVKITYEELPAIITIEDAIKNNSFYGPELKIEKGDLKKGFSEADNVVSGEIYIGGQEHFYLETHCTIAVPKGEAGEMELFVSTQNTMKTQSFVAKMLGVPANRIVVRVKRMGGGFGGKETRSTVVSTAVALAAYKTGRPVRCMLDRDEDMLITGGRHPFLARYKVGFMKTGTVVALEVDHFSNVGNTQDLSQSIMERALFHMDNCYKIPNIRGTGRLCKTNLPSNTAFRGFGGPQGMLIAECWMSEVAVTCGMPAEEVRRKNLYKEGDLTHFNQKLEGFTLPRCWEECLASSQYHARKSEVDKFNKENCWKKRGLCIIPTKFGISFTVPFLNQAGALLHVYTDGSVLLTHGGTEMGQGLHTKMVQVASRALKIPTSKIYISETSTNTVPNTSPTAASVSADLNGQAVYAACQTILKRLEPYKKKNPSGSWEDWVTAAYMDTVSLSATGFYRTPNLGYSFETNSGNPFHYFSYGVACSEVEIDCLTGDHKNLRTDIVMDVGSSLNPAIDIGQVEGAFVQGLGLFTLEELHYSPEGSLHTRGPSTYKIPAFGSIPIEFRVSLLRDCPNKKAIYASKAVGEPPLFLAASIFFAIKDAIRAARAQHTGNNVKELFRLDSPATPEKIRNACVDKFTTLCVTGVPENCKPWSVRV

For the compound `OCc1nnn(Cc2cccc(Br)c2)c1CO`, in test [1], the midpoint of inhibition, the IC50, lay at 710 nM.
The compound `Nc1ccc(O)c(/N=N/c2ncc(-n3cc4c(=O)ncnc-4[nH]3)[nH]2)c1` yielded an IC50 in test [2] of 600 nM.
For `C=Cc1ccc(C[n+]2cn(Cc3ccc(SC)cc3)c3ccccc32)cc1`, the IC50 in test [1] was found to be 590 nM.
The same measure, in the same setting: with `O=[N+]([O-])c1ccc(-c2cnc(-c3ccc(Br)cc3)s2)cc1` the figure was 100 nM.
In test [3], `COc1ccc([C@@H]2C/C(=N\c3ccc([N+](=O)[O-])cc3Cl)c3c(O)cc(O[C@H]4O[C@@H](O[C@H]5O[C@@H](C)[C@H](O)[C@@H](O)[C@H]5O)[C@H](O)[C@@H](O)[C@@H]4O)cc3O2)cc1O` showed an IC50 of 263 nM.
In turn, `COc1cc2ccc(C(=O)NCCCCc3ccc(O)c(O)c3)cc2cc1OC` displayed a half-maximal inhibitory concentration (IC50) in test [1] of 13100 nM.
Regarding `CCn1c(O)c(C(c2ccc(Br)cc2)c2c(O)n(CC)c(=S)n(CC)c2=O)c(=O)n(CC)c1=S`, the 50% inhibitory concentration (IC50) in test [1] came to 1790 nM.
`COc1ccc2c(c1)C(=O)C(=O)N2CCn1cc(COc2cc(=O)oc3ccccc23)nn1` displayed an IC50 in test [4] of 6500 nM.
`N#Cc1cc[n+](Cc2ccc(-c3ccc(C[n+]4ccc(C#N)c(C(=O)O)c4)cc3)cc2)cc1C(=O)O`: in test [5], the midpoint of inhibition, the IC50, lay at 394 nM.
For the compound `O=C1CCC(Nc2nc3cc(C(=O)Nc4cc(O)c(O)c(O)c4)ccc3n2Cc2ccc(O)cc2)C(=O)N1` (stereo unspecified), in test [1], the IC50 is 18400 nM.
`C[C@@H]1O[C@@H](OC[C@H]2O[C@@H](Oc3c(-c4ccc(O)c(O)c4)oc4cc(O)cc(O)c4/c3=N\Nc3ccccc3)[C@H](O)[C@@H](O)[C@@H]2O)[C@H](O)[C@H](O)[C@H]1O` had a concentration for half-maximal inhibition (IC50) in test [1] of 4870 nM.
Consider `COc1ccc(C(=O)/C=C/c2ccc(O)cc2)c(OC)c1`, for which it took 121 nM to reach half-maximal inhibition in test [1] (IC50). Against the preceding compound, the IC50 is about 40-fold lower.
Turning to `O=c1cc(O)cc(/C=C/c2ccc(O)c(O)c2)o1` [HISPIDIN], the IC50 in test [6] is 39700 nM.
In test [1], `Cc1c(/N=C/c2ccc(C(=O)Nc3nc4ccc(S(C)(=O)=O)cc4s3)cc2)c(=O)n(-c2ccccc2)n1C` registered a half-maximal inhibitory concentration (IC50) of 2220 nM.
Still for that read-out and setting: then `Oc1ccc(/C=C/c2cc(O)cc3oc(-c4ccc(O)cc4)c(-c4cc(O)cc(O)c4)c23)cc1`, with 12300 nM; and `O=c1[nH]c(-c2ccc(OCC3CCCCC3)c(-n3cnnn3)c2)no1`, with 121 nM.

One may read the IC50 as the concentration at which inhibition is half-maximal. Low readings indicate greater potency in that assay, high ones weaker potency in that assay.
